Drawing on patent US20220298141A1, “ENZYME INHIBITORS” (KALVISTA PHARMACEUTICALS LIMITED, priority 2019, published 2022), this text covers IC50 for 45 compounds.

For one assay, the target named is T1, Human Factor XIIa (Homo sapiens, UniProt P00748).
T1 construct: purchased Enzyme Research Laboratories
T1 sequence (P00748 373-615 limits assumed): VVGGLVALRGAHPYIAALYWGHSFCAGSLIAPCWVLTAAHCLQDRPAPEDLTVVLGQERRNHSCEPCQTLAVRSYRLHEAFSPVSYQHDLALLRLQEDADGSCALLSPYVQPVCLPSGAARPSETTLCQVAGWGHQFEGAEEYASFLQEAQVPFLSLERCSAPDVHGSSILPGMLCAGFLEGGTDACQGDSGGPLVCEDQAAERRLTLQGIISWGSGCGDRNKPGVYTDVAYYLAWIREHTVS
T1 sequence (P00748 20-372 partner limits assumed): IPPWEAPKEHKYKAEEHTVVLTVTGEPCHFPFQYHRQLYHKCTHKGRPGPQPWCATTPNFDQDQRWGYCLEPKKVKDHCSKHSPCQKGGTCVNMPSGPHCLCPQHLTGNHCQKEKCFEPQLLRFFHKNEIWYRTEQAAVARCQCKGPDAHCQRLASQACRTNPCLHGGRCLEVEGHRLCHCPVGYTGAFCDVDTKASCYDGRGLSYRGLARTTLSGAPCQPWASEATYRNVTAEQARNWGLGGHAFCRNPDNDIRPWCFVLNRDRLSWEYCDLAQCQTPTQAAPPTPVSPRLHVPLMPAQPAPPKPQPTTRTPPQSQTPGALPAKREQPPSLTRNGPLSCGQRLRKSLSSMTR
In words: Determination of Factor XIIa inhibitory activity in vitro (fluorogenic substrate H-DPro-Phe-Arg-AFC). It is filed as biochemical. Particulars: Human Factor XIIa (Enzyme Research Laboratories), 25° C., read-out: Human FXIIa IC50. The procedure: Determination of the % Inhibition for FXIIa
Factor XIIa inhibitory activity in vitro was determined using standard published methods (see e.g. Shori et al., Biochem. Pharmacol., 1992, 43, 1209; Baeriswyl et al., ACS Chem. Biol., 2015, 10 (8) 1861; Bouckaert et al., European Journal of Medicinal Chemistry 110 (2016) 181). Human Factor XIIa (Enzyme Research Laboratories) was incubated at 25° C. with the fluorogenic substrate H-DPro-Phe-Arg-AFC and various concentrations of the test compound. Residual enzyme activity (initial rate of reaction) was determined by measuring the […] and the IC50 value for the test compound was determined.

The target in another assay is T2, Human FXIa (Homo sapiens, UniProt P03951).
T2 construct: purchased Enzyme Research Laboratories
In words: Determination of FXIa inhibitory activity in vitro (fluorogenic substrate Z-Gly-Pro-Arg-AFC). The conditions noted are these: Selectivity, Human FXIa (Enzyme Research Laboratories), 25° C. It is filed as biochemical.

T2 sequence (P03951 388-625 limits assumed): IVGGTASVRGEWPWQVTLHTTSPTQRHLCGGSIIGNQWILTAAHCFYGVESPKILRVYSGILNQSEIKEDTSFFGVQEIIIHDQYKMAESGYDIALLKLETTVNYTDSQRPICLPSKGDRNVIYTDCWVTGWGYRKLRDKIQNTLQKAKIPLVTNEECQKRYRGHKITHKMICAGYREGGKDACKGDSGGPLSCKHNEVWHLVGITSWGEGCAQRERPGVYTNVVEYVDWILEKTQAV
T2 sequence (P03951 19-387 partner limits assumed): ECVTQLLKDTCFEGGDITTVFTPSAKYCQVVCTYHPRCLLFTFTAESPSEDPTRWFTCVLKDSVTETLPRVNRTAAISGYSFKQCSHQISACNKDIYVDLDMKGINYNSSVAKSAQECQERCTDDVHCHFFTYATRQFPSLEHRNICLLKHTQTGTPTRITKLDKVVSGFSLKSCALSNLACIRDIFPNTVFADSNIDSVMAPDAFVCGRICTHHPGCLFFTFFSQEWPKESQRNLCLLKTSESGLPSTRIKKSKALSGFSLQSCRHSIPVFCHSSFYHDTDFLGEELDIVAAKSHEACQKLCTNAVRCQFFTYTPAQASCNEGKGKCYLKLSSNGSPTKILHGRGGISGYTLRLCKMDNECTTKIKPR

Take `Nc1nccc2cc(CNC(=O)c3cc(Cl)cnc3NCc3ccccn3)ccc12` [Example 1.43]: the IC50 (in general, the concentration that inhibits the measured activity by half) on Human Factor XIIa was 3 to 10 µM; against Human FXIa it was above 40 µM.

As for `Nc1nccc2cc(CNC(=O)c3cc(Cl)cnc3Nc3ccc(N4CCOCC4)cc3)ccc12` [Example 1.44], the values for the IC50 on Human Factor XIIa and on Human FXIa were 10 to 40 µM and above 40 µM, respectively. For `Nc1nccc2cc(CNC(=O)c3cc(Cl)cnc3NCC(=O)N3CCOCC3)ccc12` [Example 1.45], the IC50 on Human Factor XIIa was 10 to 40 µM; at Human FXIa, above 40 µM.

Regarding `Nc1nccc2cc(CNC(=O)c3cc(Cl)cnc3NCC(=O)NC3CCCC3)ccc12` [Example 1.46], the IC50 is 10 to 40 µM on Human Factor XIIa and above 40 µM against Human FXIa. The corresponding values for `CN1C(C)(C)CC(Nc2ncc(Cl)cc2C(=O)NCc2ccc3c(N)nccc3c2)CC1(C)C` [Example 1.47] are 1 to 3 µM and above 40 µM. The corresponding values for `CN1CCN(c2cc(CNc3ncc(Cl)cc3C(=O)NCc3ccc4c(N)nccc4c3)ccn2)CC1` [Example 1.48] are 1 to 3 µM and above 40 µM. Take `CC(C)N1CCC(CNc2ncc(Cl)cc2C(=O)NCc2ccc3c(N)nccc3c2)CC1` [Example 1.49]: the figures for the IC50 on Human Factor XIIa and against Human FXIa were 0.3 to 1 µM and above 40 µM, respectively. The corresponding values for `Nc1nccc2cc(CNC(=O)c3cc(Cl)cnc3NCC3CCN(C4CC4)CC3)ccc12` [Example 1.50, N-((1-aminoisoquinolin-6-yl)methyl)-5-chloro-2-(((1-cyclopropylpiperidin-4-yl)methyl)amino)nicotinamide] are 0.3 to 1 µM and above 40 µM. The like results for `CCN1CCC(CNc2ncc(Cl)cc2C(=O)NCc2ccc3c(N)nccc3c2)CC1` [Example 1.51, N-((1-aminoisoquinolin-6-yl)methyl)-5-chloro-2-(((1-ethylpiperidin-4-yl)methyl)amino)nicotinamide] were, in that order, below 0.3 µM and above 40 µM. Take `Nc1nccc2cc(CNC(=O)c3cc(Cl)cnc3NCC34CCN(CC3)CC4)ccc12` [Example 1.52]: the results for the IC50 at Human Factor XIIa and against Human FXIa were 0.3 to 1 µM and above 40 µM, respectively. Take `Nc1nccc2cc(CNC(=O)c3cc(Cl)cnc3NCC3CCN(C4CCCC4)CC3)ccc12` [Example 1.53]: the figures for the half-maximal inhibitory concentration (IC50) at Human Factor XIIa and against Human FXIa were 0.3 to 1 µM and above 40 µM, respectively. The like results for `COCCN1CCC(CNc2ncc(Cl)cc2C(=O)NCc2ccc3c(N)nccc3c2)CC1` [Example 1.54, N-((1-aminoisoquinolin-6-yl)methyl)-5-chloro-2-(((1-(2-methoxyethyl)piperidin-4-yl)methyl)amino)nicotinamide] were, in that order, 0.3 to 1 µM and above 40 µM.

In the case of `CC(C)CN1CCC(CNc2ncc(Cl)cc2C(=O)NCc2ccc3c(N)nccc3c2)CC1` [Example 1.55], the IC50 at Human Factor XIIa is 0.3 to 1 µM; against Human FXIa it was above 40 µM. The corresponding values for `Nc1nccc2cc(CNC(=O)c3cc(Cl)cnc3NCC3CCN(CC4CC4)CC3)ccc12` [Example 1.56] are 0.3 to 1 µM and above 40 µM. The corresponding values for `Nc1nccc2cc(CNC(=O)c3cc(Cl)cnc3NCC3CCN(CC(F)(F)F)CC3)ccc12` [Example 1.57] are 3 to 10 µM and above 40 µM. Consider `Nc1nccc2cc(CNC(=O)c3cccc(Cl)c3)ccc12` [Example 19.05, N-((1-aminoisoquinolin-6-yl)methyl)-3-chlorobenzamide], for which the half-maximal inhibitory concentration (IC50) on Human Factor XIIa was in the range of 10 to 40 µM. Consider `Nc1nccc2cc(CNC(=O)c3cnc(Cl)c(Cl)c3)ccc12` [Example 19.06, N-(1-Amino-isoquinolin-6-ylmethyl)-5,6-dichloro-nicotinamide], for which the IC50 at Human Factor XIIa fell in the range of 3 to 10 µM. Still for that read-out and setting: to `Nc1nccc2cc(CNC(=O)c3cc(Cl)cnc3Oc3ccc(N4CCCC4=O)cc3)ccc12` [Example 22.01, N-((1-aminoisoquinolin-6-yl)methyl)-5-chloro-2-(4-(2-oxopyrrolidin-1-yl)phenoxy)nicotinamide] belongs 3 to 10 µM.

With `Cn1cnc2cc(Oc3ncc(Cl)cc3C(=O)NCc3ccc4c(N)nccc4c3)ccc21` [Example 22.02], on Human Factor XIIa, the IC50 lay in the range of 10 to 40 µM. Regarding `CN(C)c1ccc(Oc2ncc(Cl)cc2C(=O)NCc2ccc3c(N)nccc3c2)cc1` [Example 22.03], on Human Factor XIIa, the IC50 was in the range of 10 to 40 µM. Same read-out and setting: to `CN(C(=O)C(C)(C)C)c1ccc(Oc2ncc(Cl)cc2C(=O)NCc2ccc3c(N)nccc3c2)cc1` [Example 22.04] belongs 10 to 40 µM. Still for that read-out and setting: then `Nc1nccc2cc(CNC(=O)c3cc(Cl)cnc3Oc3cccc(N4CCCC4=O)c3)ccc12` [Example 22.05], with 10 to 40 µM; and `Nc1nccc2cc(CNC(=O)c3cc(Cl)cnc3OCCN3CCCCC3)ccc12` [Example 22.06], with 10 to 40 µM; and `CN1CCC(COc2ncc(Cl)cc2C(=O)NCc2ccc3c(N)nccc3c2)CC1` [Example 22.07], with 10 to 40 µM. Regarding `Nc1nccc2cc(CNC(=O)c3cc(Cl)cnc3OCCN3CCCC3)ccc12` [Example 22.08], the IC50 at Human Factor XIIa fell in the range of 10 to 40 µM.

Consider `CN(C)CCOc1ncc(Cl)cc1C(=O)NCc1ccc2c(N)nccc2c1` [Example 22.09], for which, at Human Factor XIIa, the IC50 lay within 10 to 40 µM. Still for that read-out and setting: to `CCN(CC)CCCOc1ncc(Cl)cc1C(=O)NCc1ccc2c(N)nccc2c1` [Example 22.10] belongs 10 to 40 µM.

Take `Nc1nccc2cc(CNC(=O)c3cc(Cl)cnc3OCCCN3CCCCC3)ccc12` [Example 22.11]: the IC50 on Human Factor XIIa lay in the range of 10 to 40 µM. With `Nc1nccc2cc(CNC(=O)c3cc(Cl)cnc3Oc3ccc(N4CCNCC4)cc3)ccc12` [Example 22.12], the IC50 at Human Factor XIIa lay in the range of 3 to 10 µM. Same read-out and setting: then `Nc1nccc2cc(CNC(=O)c3cc(Cl)cnc3Oc3cccc(N4CCNCC4)c3)ccc12` [Example 22.13], with 10 to 40 µM; and `CN(Cc1ccccc1)c1ncc(Cl)cc1C(=O)NCc1ccc2c(N)nccc2c1` [Example 28.01, N-((1-aminoisoquinolin-6-yl)methyl)-2-(benzyl(methyl)amino)-5-chloronicotinamide], with 10 to 40 µM. The same measure, in the same setting: then `CN(CC1CCN(c2ccncc2)CC1)c1ncc(Cl)cc1C(=O)NCc1ccc2c(N)nccc2c1` [Example 28.02, N-((1-aminoisoquinolin-6-yl)methyl)-5-chloro-2-(methyl((1-(pyridin-4-yl)piperidin-4-yl)methyl)amino)nicotinamide], with 10 to 40 µM. On to `CN(C)CCCOc1cccc(CN(C)c2ncc(Cl)cc2C(=O)NCc2ccc3c(N)nccc3c2)c1` [Example 28.03, N-((1-aminoisoquinolin-6-yl)methyl)-5-chloro-2-((3-(3-(dimethylamino)propoxy)benzyl)(methyl)amino)nicotinamide], for which the half-maximal inhibitory concentration (IC50) at Human Factor XIIa was in the range of 3 to 10 µM.

As for `CN(c1ncc(Cl)cc1C(=O)NCc1ccc2c(N)nccc2c1)C1CCOCC1` [Example 28.04, N-((1-aminoisoquinolin-6-yl)methyl)-5-chloro-2-(methyl(tetra hydro-2H-pyran-4-yl)amino)nicotinamide], the IC50 on Human Factor XIIa was 10 to 40 µM. Still for that read-out and setting: then `CN(c1ccccc1)c1ncc(Cl)cc1C(=O)NCc1ccc2c(N)nccc2c1` [Example 28.05, N-((1-aminoisoquinolin-6-yl)methyl)-5-chloro-2-(methyl(phenyl)amino)nicotinamide], with 10 to 40 µM. For `CN(c1cccc(Cl)c1)c1ncc(Cl)cc1C(=O)NCc1ccc2c(N)nccc2c1` [Example 28.06], on Human Factor XIIa, the IC50 lay within 10 to 40 µM. `Nc1nccc2cc(CNC(=O)c3cncc(-c4ccccc4)c3)ccc12` [Example 29.01]: the IC50 at Human Factor XIIa was in the range of 10 to 40 µM. Same read-out and setting: then `Nc1nccc2cc(CNC(=O)c3cncc(-c4ccnn4Cc4ccccc4)c3)ccc12` [Example 29.03, N-((1-aminoisoquinolin-6-yl)methyl)-5-(1-benzyl-1H-pyrazol-5-yl)nicotinamide], with 3 to 10 µM. Turning to `Nc1nccc2cc(CNC(=O)c3cncc(CN4CCNCC4)c3)ccc12` [Example 29.04], on Human Factor XIIa, the IC50 was in the range of 10 to 40 µM. Same read-out and setting: to `Nc1nccc2cc(CNC(=O)c3cccc(CN4CCN(CC5CCCC5)CC4)c3)ccc12` [Example 29.09] belongs 3 to 10 µM; to `CN1CCN(Cc2cc(Cl)cc(C(=O)NCc3ccc4c(N)nccc4c3)c2)CC1` [Example 29.10], 3 to 10 µM.

For `Nc1nccc2cc(CNC(=O)c3cc(Cl)cc(CN4CCN(CC5CCCC5)CC4)c3)ccc12` [Example 29.11, N-((1-aminoisoquinolin-6-yl)methyl)-3-chloro-5-((4-(cyclopentylmethyl)piperazin-1-yl)methyl)benzamide], the IC50 on Human Factor XIIa was in the range of 3 to 10 µM. On to `C[C@@H]1CCC[C@H](C)N1CC(=O)Nc1cc(Cl)cc(C(=O)NCc2ccc3c(N)nccc3c2)c1` [Example 32.05], for which the IC50 on Human Factor XIIa was 3 to 10 µM. Turning to `COc1ccc(-n2cc(C(F)F)nn2)c(CNC(=O)c2nccnc2NCC2CCN(C)CC2)c1F` [Example 33.22], the IC50 at Human Factor XIIa was 10 to 40 µM. Same read-out and setting: then `Cc1cc(CN)cc(C)c1CNC(=O)c1nccnc1NCC1CCN(C)CC1` [Example 33.23], with 10 to 40 µM.
